Source: patent US20090312407A1, “Synthetic Flavonoids and Pharmaceutical Compositions and Therapeutic Methods of Treatment of Cancer and other Pathologies” (priority 2007, published 2009)
Where “and” joins values, the source holds several entries; their conditions need not be identical. Identical values can stand only once. Entries after “also recorded” stand apart in the source; their conditions may differ. Like-named read-outs stand apart in the source and are kept apart here.

Key:
Assay type in all cases: cell-based
PC-3 cells = assay: Cytotoxicity on PC-3 cells; settings: for inhibitory activity / growth inhibition compared to AZT: PC-3 cells, same conditions as AZT
Text: (§1) The purified and identified analogs were subjected to in vitro biological testing.

H-9 cells = assay: Cytotoxicity on H-9 cells; settings: for Cells (×10^4) Mean / Cells (×10^4): Table 3, 12-05 to 12-09/2005; for % Inhibition / inhibition at 1 µg/mL / inhibition at 5 µg/mL / inhibition at 10 µg/mL / inhibition at 50 µg/mL: vs 2% DMSO, Table 3; for inhibitory activity / growth inhibition compared to AZT: H-9 cells, same conditions as AZT; for inhibition at 1 µg/mL / inhibition at 5 µg/mL / inhibition at 10 µg/mL / inhibition at 50 µg/mL: Homo sapiens; for inhibition at 1 µg/mL: H9, 1 μg/ml; for inhibition at 5 µg/mL: H9, 5 μg/ml; for inhibition at 10 µg/mL: H9, 10 μg/ml; for inhibition at 50 µg/mL: H9, 50 μg/ml
Text: as §1
These three congeners were further evaluated in H9 and PC3 cells. AZT was employed as a positive control in all of these experiments.

MCF-7 cells = assay: Cytotoxicity on MCF-7 cells; settings: for % Inhibition / inhibition at 1 µg/mL / inhibition at 5 µg/mL / inhibition at 10 µg/mL / inhibition at 50 µg/mL: vs 2% DMSO, Table 6; for inhibition at 1 µg/mL / inhibition at 5 µg/mL / inhibition at 10 µg/mL / inhibition at 50 µg/mL: Homo sapiens; for inhibition at 1 µg/mL: MCF7, 1 μg/ml; for inhibition at 5 µg/mL: MCF7, 5 μg/ml; for inhibition at 10 µg/mL: MCF7, 10 μg/ml; for inhibition at 50 µg/mL: MCF7, 50 μg/ml; for inhibitory activity / growth inhibition compared to AZT: MCF-7 cells, same conditions as AZT; for cytotoxic activities on MCF-7 cells: different drug concentrations
[1] = single count, read-out: % Inhibition
[2] = 1 μg/ml, Table 6, 11-14 to 11-18/2005
[3] = 1 μg/ml, single count, Table 6, 11-14 to 11-18/2005
[4] = 5 μg/ml, Table 6, 11-14 to 11-18/2005
[5] = 5 μg/ml, single count, Table 6, 11-14 to 11-18/2005
[6] = 10 μg/ml, Table 6, 11-14 to 11-18/2005
[7] = 10 μg/ml, single count, Table 6, 11-14 to 11-18/2005
[8] = 50 μg/ml, Table 6, 11-14 to 11-18/2005
[9] = 50 μg/ml, single count, Table 6, 11-14 to 11-18/2005

COc1ccc(C=CC(=O)c2cc(Br)cc(Br)c2O)cc1OC (stereo in doubt) [CHBr 2M]
inhibitory activity / growth inhibition compared to AZT (PC-3 cells): much superior; also recorded: as good or somewhat better | Cells (×10^4) Mean (H-9 cells; 1 μg/ml): 47.42 ×10^4 | % Inhibition (H-9 cells; 1 μg/ml, single count): 9.45% and 1.49% and 5.97% | Cells (×10^4) (H-9 cells; 1 μg/ml, single count): 45.5 ×10^4 and 49.5 ×10^4 and 47.3 ×10^4 | Cells (×10^4) Mean (H-9 cells; 5 μg/ml): 25.33 ×10^4 | % Inhibition (H-9 cells; 5 μg/ml, single count): 50.75% and 48.76% | Cells (×10^4) (H-9 cells; 5 μg/ml, single count): 25.5 ×10^4 and 24.8 ×10^4 and 25.8 ×10^4 | Cells (×10^4) Mean (H-9 cells; 10 μg/ml): 17.58 ×10^4 | % Inhibition (H-9 cells; 10 μg/ml, single count): 67.68% | Cells (×10^4) (H-9 cells; 10 μg/ml, single count): 18.3 ×10^4 and 16.3 ×10^4 | Cells (×10^4) Mean (H-9 cells; 50 μg/ml): 11.58 ×10^4 | % Inhibition (H-9 cells; 50 μg/ml, single count): 77.11% | Cells (×10^4) (H-9 cells; 50 μg/ml, single count): 11.8 ×10^4 and 11.5 ×10^4 | inhibitory activity / growth inhibition compared to AZT (H-9 cells): much superior; also recorded: as good or somewhat better | inhibition at 1 µg/mL (H-9 cells; read-out: % Inhibition Mean): 5.64% | inhibition at 5 µg/mL (H-9 cells; [1]): 49.2% | inhibition at 5 µg/mL (H-9 cells; read-out: % Inhibition Mean): 49.6% | inhibition at 10 µg/mL (H-9 cells; [1]): 63.7% | inhibition at 10 µg/mL (H-9 cells; read-out: % Inhibition Mean): 65% | inhibition at 50 µg/mL (H-9 cells; [1]): 76.6% | inhibition at 50 µg/mL (H-9 cells; read-out: % Inhibition Mean): 77% | Cells (×10^4) Mean (MCF-7 cells; [2]): 49.08 ×10^4 | % Inhibition (MCF-7 cells; 1 μg/ml, single count): 10.95% and 18.73% | Cells (×10^4) (MCF-7 cells; [3]): 48.8 ×10^4 and 51.5 ×10^4 and 47.0 ×10^4 | Cells (×10^4) Mean (MCF-7 cells; [4]): 26.25 ×10^4 | % Inhibition (MCF-7 cells; 5 μg/ml, single count): 56.34% and 54.18% | Cells (×10^4) (MCF-7 cells; [5]): 27.0 ×10^4 and 25.3 ×10^4 and 26.5 ×10^4 | Cells (×10^4) Mean (MCF-7 cells; [6]): 7.92 ×10^4 | % Inhibition (MCF-7 cells; 10 μg/ml, single count): 84.44% and 87.03% | Cells (×10^4) (MCF-7 cells; [7]): 7.3 ×10^4 and 9.0 ×10^4 and 7.5 ×10^4 | Cells (×10^4) Mean (MCF-7 cells; [8]): 0.75 ×10^4 | % Inhibition (MCF-7 cells; 50 μg/ml, single count): 98.27% and 99.14% | Cells (×10^4) (MCF-7 cells; [9]): 0.8 ×10^4 and 1.0 ×10^4 and 0.5 ×10^4 | inhibition at 1 µg/mL (MCF-7 cells; [1]): 15.7% | inhibition at 1 µg/mL (MCF-7 cells; read-out: % Inhibition Mean): 15.1% | inhibition at 5 µg/mL (MCF-7 cells; [1]): 53.3% | inhibition at 5 µg/mL (MCF-7 cells; read-out: % Inhibition Mean): 54.6% | inhibition at 10 µg/mL (MCF-7 cells; [1]): 87.5% | inhibition at 10 µg/mL (MCF-7 cells; read-out: % Inhibition Mean): 86.3% | inhibition at 50 µg/mL (MCF-7 cells; [1]): 98.7% | inhibition at 50 µg/mL (MCF-7 cells; read-out: % Inhibition Mean): 98.7% | inhibitory activity / growth inhibition compared to AZT (MCF-7 cells): much superior; also recorded: as good or somewhat better | cytotoxic activities on MCF-7 cells (MCF-7 cells): good cytotoxic activities

COc1ccc(C=CC(=O)c2cc(Cl)cc(Cl)c2O)cc1OC (stereo in doubt) [CHCl 2M]
inhibitory activity / growth inhibition compared to AZT (PC-3 cells; listed as CHCI2M): much superior; also recorded: as good or somewhat better | Cells (×10^4) Mean (H-9 cells; 1 μg/ml): 42.25 ×10^4 | % Inhibition (H-9 cells; 1 μg/ml, single count): 15.42% | Cells (×10^4) (H-9 cells; 1 μg/ml, single count): 42.0 ×10^4 and 42.3 ×10^4 and 42.5 ×10^4 | Cells (×10^4) Mean (H-9 cells; 5 μg/ml): 24.00 ×10^4 | % Inhibition (H-9 cells; 5 μg/ml, single count): 52.74% and 51.74% | Cells (×10^4) (H-9 cells; 5 μg/ml, single count): 24.0 ×10^4 and 23.8 ×10^4 and 24.3 ×10^4 | Cells (×10^4) Mean (H-9 cells; 10 μg/ml): 12.92 ×10^4 | % Inhibition (H-9 cells; 10 μg/ml, single count): 77.11% and 71.64% | Cells (×10^4) (H-9 cells; 10 μg/ml, single count): 13.0 ×10^4 and 11.5 ×10^4 and 14.3 ×10^4 | Cells (×10^4) Mean (H-9 cells; 50 μg/ml): 4.50 ×10^4 | % Inhibition (H-9 cells; 50 μg/ml, single count): 90.05% | Cells (×10^4) (H-9 cells; 50 μg/ml, single count): 4.0 ×10^4 and 4.5 ×10^4 and 5.0 ×10^4 | inhibitory activity / growth inhibition compared to AZT (H-9 cells; listed as CHCI2M): much superior; also recorded: as good or somewhat better | inhibition at 1 µg/mL (H-9 cells; [1]): 16.4% | inhibition at 1 µg/mL (H-9 cells; read-out: % Inhibition Mean): 15.9% | inhibition at 5 µg/mL (H-9 cells; [1]): 52.2% | inhibition at 5 µg/mL (H-9 cells; read-out: % Inhibition Mean): 52.2% | inhibition at 10 µg/mL (H-9 cells; [1]): 74.1% | inhibition at 10 µg/mL (H-9 cells; read-out: % Inhibition Mean): 74.3% | inhibition at 50 µg/mL (H-9 cells; [1]): 92% | inhibition at 50 µg/mL (H-9 cells; read-out: % Inhibition Mean): 91% | Cells (×10^4) Mean (MCF-7 cells; [2]): 49.42 ×10^4 | % Inhibition (MCF-7 cells; 1 μg/ml, single count): 16.14% and 13.54% | Cells (×10^4) (MCF-7 cells; [3]): 49.8 ×10^4 and 48.5 ×10^4 and 50.0 ×10^4 | Cells (×10^4) Mean (MCF-7 cells; [4]): 32.33 ×10^4 | % Inhibition (MCF-7 cells; 5 μg/ml, single count): 45.53% and 42.07% | Cells (×10^4) (MCF-7 cells; [5]): 32.0 ×10^4 and 31.5 ×10^4 and 33.5 ×10^4 | Cells (×10^4) Mean (MCF-7 cells; [6]): 10.42 ×10^4 | % Inhibition (MCF-7 cells; 10 μg/ml, single count): 81.41% and 81.84% | Cells (×10^4) (MCF-7 cells; [7]): 10.0 ×10^4 and 10.8 ×10^4 and 10.5 ×10^4 | Cells (×10^4) Mean (MCF-7 cells; [8]): 0.75 ×10^4 | % Inhibition (MCF-7 cells; 50 μg/ml, single count): 99.14% | Cells (×10^4) (MCF-7 cells; [9]): 1.0 ×10^4 and 0.5 ×10^4 and 0.8 ×10^4 | inhibition at 1 µg/mL (MCF-7 cells; [1]): 14% | inhibition at 1 µg/mL (MCF-7 cells; read-out: % Inhibition Mean): 14.6% | inhibition at 5 µg/mL (MCF-7 cells; [1]): 44.7% | inhibition at 5 µg/mL (MCF-7 cells; read-out: % Inhibition Mean): 44.1% | inhibition at 10 µg/mL (MCF-7 cells; [1]): 82.7% | inhibition at 10 µg/mL (MCF-7 cells; read-out: % Inhibition Mean): 82% | inhibition at 50 µg/mL (MCF-7 cells; [1]): 98.3% | inhibition at 50 µg/mL (MCF-7 cells; read-out: % Inhibition Mean): 98.7% | inhibitory activity / growth inhibition compared to AZT (MCF-7 cells; listed as CHCI2M): much superior; also recorded: as good or somewhat better | cytotoxic activities on MCF-7 cells (MCF-7 cells): good cytotoxic activities

COc1cc(C=CC(=O)c2cc(Cl)cc(Cl)c2O)cc(OC)c1OC [CHCl 3M]
Cells (×10^4) (MCF-7 cells; 5 μg/ml, single count, Table 17, 12-12 to 12-16/2005): 53.0 ×10^4

Cc1cn([C@H]2C[C@H](N=[N+]=[N-])[C@@H](CO)O2)c(=O)[nH]c1=O [AZT, reference compound]
Cells (×10^4) Mean (PC-3 cells; 5 μg/ml, Table 7, 11-11 to 11-17/2005): 71.33 ×10^4 | % Inhibition (PC-3 cells; 10 μg/ml, single count, vs 2% DMSO, Table 7): 38.73% | Cells (×10^4) Mean (MCF-7 cells; 1 μg/ml, Table 12, 9-12 to 9-16/2005): 45.25 ×10^4 | Cells (×10^4) (MCF-7 cells; 1 μg/ml, single count, Table 12, 9-12 to 9-16/2005): 46.0 ×10^4 and 45.3 ×10^4 and 44.5 ×10^4 | Cells (×10^4) Mean (MCF-7 cells; 5 μg/ml, Table 12, 9-12 to 9-16/2005): 28.58 ×10^4 | Cells (×10^4) (MCF-7 cells; 5 μg/ml, single count, Table 12, 9-12 to 9-16/2005): 27.8 ×10^4 and 28.0 ×10^4 | Cells (×10^4) Mean (MCF-7 cells; 10 μg/ml, Table 12, 9-12 to 9-16/2005): 20.17 ×10^4 | Cells (×10^4) (MCF-7 cells; 10 μg/ml, single count, Table 12, 9-12 to 9-16/2005): 17.5 ×10^4 and 21.5 ×10^4
